Reference: US9492805B2, “Initiated chemical vapor deposition of vinyl polymers for the encapsulation of particles” (Massachusetts Institute of Technology, priority 2005, dated 2016)

Assay: Release of ibuprofen from pellets of 25 μm microcrystals in pH buffers, light absorption at 220 nm
Assay type: physicochemical
Conditions: pH 7.4
Source text: In another example, 25 μm ibuprofen microcrystals were encapsulated with the iCVD P(MAA-EDMA) copolymer and likewise ibuprofen release was tracked over time at different pH conditions. FIG. 26a gives the time release profiles, comparing uncoated and coated ibuprofen at pH 1.2 and 7.4. […] This enhanced protection in acids would be important for drugs such as ibuprofen and other non-steroidal anti-inflammatory drugs that are known to cause stomach ulceration and hemorrhaging, leading to mucosal damage and severe blood loss with acute dosage and prolonged administration. [S. E. Gabriel, L. Jaakkimainen, C. Bombardier, Ann. Intern. Med. 1991, 115, 787-796; and [ M. M. Wolfe, D. R. Lichtenstein, G. Singh, N. Engl. J. Med. 1999, 340, 1888-1899.] The increase in drug dissolution and activity by using finer drug particles would likely exacerbate this problem. […]
Release Measurements. […] For fluorescein, release was monitored at 490 nm, comparing fluorescein layered on silicon substrates that were exposed or encapsulated with an iCVD P(MAA-EDMA) coating. For ibuprofen, 25 μm ibuprofen microcrystals (DuPont), that were bare or encapsulated with an iCVD P(MAA-EDMA) coating, were compressed into pellets and their release monitored at 220 nm. Absorption was measured on a Varian Cary 6000i.

CC(C)Cc1ccc(C(C)C(=O)O)cc1 (stereo not shown) [ibuprofen]
release of ibuprofen at near neutral pH: relatively fast
